Results published in patent publication US12594268B2, “Methods of treating Fabry disease in patients having a mutation in the GLA gene” (Amicus Therapeutics, Inc., priority 2018, dated 2026).
Numbering of substitutions follows the chain as printed.

Legend:
Format in all cases: cell-based
[1] = molecular target: T1, α-Gal A mutant form N320H (Homo sapiens, UniProt P06280, N320H); test: α-Gal A activity in lysates of transfected HEK-293 cells, N320H
T1 construct: expressed in transfected cells; host or cells: HEK-293
T1 sequence (P06280 32-429 N320H): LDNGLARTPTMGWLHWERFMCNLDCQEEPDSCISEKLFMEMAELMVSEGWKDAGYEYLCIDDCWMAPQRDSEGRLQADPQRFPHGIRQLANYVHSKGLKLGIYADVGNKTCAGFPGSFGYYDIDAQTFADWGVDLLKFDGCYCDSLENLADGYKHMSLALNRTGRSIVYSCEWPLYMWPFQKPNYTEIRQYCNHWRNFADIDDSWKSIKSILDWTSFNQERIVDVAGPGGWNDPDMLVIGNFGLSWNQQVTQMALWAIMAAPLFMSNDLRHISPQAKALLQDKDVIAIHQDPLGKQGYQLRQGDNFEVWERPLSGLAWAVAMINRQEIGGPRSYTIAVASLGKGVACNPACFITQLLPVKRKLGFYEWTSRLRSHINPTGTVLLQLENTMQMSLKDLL
Procedure: (§1) Baseline and 10 μM migalastat α-Gal A activity: Differences in the α-Gal A activity between lysates incubated in the absence and presence of 10 μM migalastat were determined using a one-tailed, Mann Whitney U test; an increase at 10 μM migalastat with a p<0.05 was considered significant.
(§2) 10 μM migalastat α-Gal A activity (% WT)=(α-Gal A activity in mutant transfected cell lysates incubated with 10 μM migalastat÷α-Gal A activity in wild-type transfected cell lysates without migalastat)*100.
(§3) Absolute increase (% WT)=is the 10 μM migalastat α-Gal A activity (% WT) minus the baseline α-Gal A activity (% WT).
(§4) Relative increase is the 10 μM migalastat α-Gal A activity in mutant transfected cell lysates÷baseline α-Gal A activity in mutant transfected cell lysates incubated without migalastat.

[2] = molecular target: T2, α-Gal A mutant form W204L (Homo sapiens, UniProt P06280, W204L); test: α-Gal A activity in lysates of transfected HEK-293 cells, W204L
T2 construct: expressed in transfected cells; host or cells: HEK-293
T2 sequence (P06280 32-429 W204L): T1 sequence (P06280 32-429 N320H) with W173L, H289N
Procedure: as §1, §2, §3, §4

[3] = molecular target: T3, α-Gal A mutant form Q330P (Homo sapiens, UniProt P06280, Q330P); test: α-Gal A activity in lysates of transfected HEK-293 cells, Q330P
T3 construct: expressed in transfected cells; host or cells: HEK-293
T3 sequence (P06280 32-429 Q330P): T1 sequence (P06280 32-429 N320H) with H289N, Q299P
Procedure: as §1, §2, §3, §4

α-Gal A mutant form G80V = molecular target: T4, α-Gal A mutant form G80V (Homo sapiens, UniProt P06280, G80V); test: α-Gal A activity in lysates of transfected HEK-293 cells, G80V
T4 construct: expressed in transfected cells; host or cells: HEK-293
T4 sequence (P06280 32-429 G80V): T1 sequence (P06280 32-429 N320H) with G49V, H289N
Procedure: as §1, §2, §3, §4

[4] = molecular target: T5, α-Gal A mutant form I239M (Homo sapiens, UniProt P06280, I239M); test: α-Gal A activity in lysates of transfected HEK-293 cells, I239M
T5 construct: expressed in transfected cells; host or cells: HEK-293
T5 sequence (P06280 32-429 I239M): T1 sequence (P06280 32-429 N320H) with I208M, H289N
Procedure: as §1, §2, §3, §4

[5] = 10 μM migalastat minus baseline
[6] = 10 μM migalastat ÷ baseline activity
[7] = HEK-293 lysates, 10 μM migalastat, 5 days, mean ± SEM

What does the source list for `OC[C@H]1NC[C@H](O)[C@@H](O)[C@H]1O` [migalastat, (2R,3S,4R,5S)-2-(hydroxymethyl) piperdine-3,4,5-triol]?
Absolute increase (% WT) [1, 5]: 32.2 % WT; Relative increase [1, 6]: 2.59; 10 μM migalastat α-Gal A activity [1, 7]: 22149 ± 1050 nmol/mg/h; 10 μM migalastat α-Gal A activity (% WT) [1, 7]: 52.9 ± 3.1 % WT; Absolute increase (% WT) [2, 5]: 47.4 % WT; Relative increase [2, 6]: 2.02; 10 μM migalastat α-Gal A activity [2, 7]: 32649 ± 3037 nmol/mg/h; 10 μM migalastat α-Gal A activity (% WT) [2, 7]: 84.3 ± 5.9 % WT; Absolute increase (% WT) [3, 5]: 24.4 % WT; Relative increase [3, 6]: 2.21; 10 μM migalastat α-Gal A activity [3, 7]: 12375 ± 664 nmol/mg/h; 10 μM migalastat α-Gal A activity (% WT) [3, 7]: 45.8 ± 1.9 % WT; Absolute increase (% WT) (α-Gal A mutant form G80V; [5]): 4.3 % WT; Relative increase (α-Gal A mutant form G80V; [6]): 3.18; 10 μM migalastat α-Gal A activity (α-Gal A mutant form G80V; [7]): 2434 ± 333 nmol/mg/h; 10 μM migalastat α-Gal A activity (% WT) (α-Gal A mutant form G80V; [7]): 6.4 ± 0.6 % WT; Absolute increase (% WT) [4, 5]: 55.5 % WT; Relative increase [4, 6]: 5.12; 10 μM migalastat α-Gal A activity [4, 7]: 24827 ± 3056 nmol/mg/h; 10 μM migalastat α-Gal A activity (% WT) [4, 7]: 69.3 ± 6.9 % WT
